Reference: patent US20220062240A1, “METHODS OF TREATING CANCER USING A CLK INHIBITOR” (BioSplice Therapeutics, Inc., priority 2018, published 2022)
Where two headings read alike, the source gives them in different places.

How the values were obtained:
[1] = system: haematopoietic & lymphoid tumors (13 cell lines); assay: CellTiter-Glo Viability Assay, haematopoietic & lymphoid tumors; assay type: cell-based; conditions: Homo sapiens, inhibition of cancer cell proliferation
[2] = system: colorectal cancer (6 cell lines); assay: CellTiter-Glo Viability Assay, colorectal cancer; assay type: cell-based; conditions: Homo sapiens, inhibition of cancer cell proliferation
CLK2 = target: T1, CLK2 (Homo sapiens, UniProt P49760); assay: CLK2 kinase activity assay (Z-lyte, Ser/Thr 6 peptide); assay type: biochemical; conditions: recombinant CLK2 kinase, ATP 60 μM; read-out: EC50
T1 construct: purchased Thermo Fisher (Life Technologies), Z'-LYTE Kinase Assay Kits
Protocol: All reactions were performed in duplicate.

[3] = system: pancreatic cancer (8 cell lines); assay: CellTiter-Glo Viability Assay, pancreatic cancer; assay type: cell-based; conditions: Homo sapiens, inhibition of cancer cell proliferation
CLK3 = CLK3 (Homo sapiens, UniProt P49761); assay: CLK3 kinase activity assay (Z-lyte, Ser/Thr 18 peptide)
[4] = system: ovarian cancer (4 cell lines); assay: CellTiter-Glo Viability Assay, ovarian cancer; assay type: cell-based; conditions: Homo sapiens, inhibition of cancer cell proliferation
[5] = system: lung cancer (4 cell lines); assay: CellTiter-Glo Viability Assay, lung cancer; assay type: cell-based; conditions: Homo sapiens, inhibition of cancer cell proliferation
CAMA1 = assay: CellTiter-Glo Viability Assay, breast cancer; assay type: cell-based; conditions: Homo sapiens, CAMA-1, 96 h; CAMA1, breast cancer, four days; read-out: EC50
MCF7 = assay: CellTiter-Glo Viability Assay, breast cancer; assay type: cell-based; conditions: Homo sapiens, 96 h; MCF7, breast cancer, four days; read-out: EC50
HCC1599 = assay: CellTiter-Glo Viability Assay, breast cancer; assay type: cell-based; conditions: Homo sapiens, 96 h; HCC1599, breast cancer, four days; read-out: EC50
DU4475 = assay: CellTiter-Glo Viability Assay, breast cancer; assay type: cell-based; conditions: Homo sapiens, DU-4475, 96 h; DU4475, breast cancer, four days; read-out: EC50
ZR-75-1 = assay: CellTiter-Glo Viability Assay, breast cancer; assay type: cell-based; conditions: Homo sapiens, 96 h; ZR-75-1, breast cancer, four days; read-out: EC50
BT-549 = assay: CellTiter-Glo Viability Assay, breast cancer; assay type: cell-based; conditions: Homo sapiens, 96 h; BT-549, breast cancer, four days; read-out: EC50
T47D = assay: CellTiter-Glo Viability Assay, breast cancer; assay type: cell-based; conditions: Homo sapiens, 96 h, breast cancer, four days, read-out: EC50
MDA-MB-231-Luc = assay: CellTiter-Glo Viability Assay, breast cancer; assay type: cell-based; conditions: Homo sapiens, 96 h; MDA-MB-231-Luc, breast cancer, four days; read-out: EC50
[6] = system: liver cancer (3 cell lines); assay: CellTiter-Glo Viability Assay, liver cancer; assay type: cell-based; conditions: Homo sapiens, inhibition of cancer cell proliferation
[7] = system: prostate cancer (5 cell lines); assay: CellTiter-Glo Viability Assay, prostate cancer; assay type: cell-based; conditions: Homo sapiens
all 50 cell lines = assay: CellTiter-Glo Viability Assay, average across all cell lines; assay type: cell-based; conditions: Homo sapiens; across all 50 cell lines; read-out: average EC50 for inhibition of cancer cell proliferation
Procedure, shortened: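 Cells were plated at 300-3,000 per well in their own media, then treated with compound in duplicate, with DMSO wells as controls. After four days at 37° C and 5% CO2, CellTiter-Glo was added, and luminescence was read. EC50s were fitted.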

CLK3, sequence (P49761 whole entry): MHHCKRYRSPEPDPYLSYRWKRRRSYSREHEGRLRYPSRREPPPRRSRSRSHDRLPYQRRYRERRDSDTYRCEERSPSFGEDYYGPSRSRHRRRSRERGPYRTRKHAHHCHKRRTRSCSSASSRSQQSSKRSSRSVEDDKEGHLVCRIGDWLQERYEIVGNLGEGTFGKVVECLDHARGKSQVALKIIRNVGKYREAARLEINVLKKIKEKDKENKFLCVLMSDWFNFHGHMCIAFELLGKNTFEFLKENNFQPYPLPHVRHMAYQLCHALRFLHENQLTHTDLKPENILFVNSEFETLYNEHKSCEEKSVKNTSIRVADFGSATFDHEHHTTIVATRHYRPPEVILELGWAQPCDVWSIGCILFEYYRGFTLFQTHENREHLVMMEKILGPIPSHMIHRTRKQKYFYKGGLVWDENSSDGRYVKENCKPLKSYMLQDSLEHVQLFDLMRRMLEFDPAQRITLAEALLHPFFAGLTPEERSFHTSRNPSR
T1 sequence (P49760 whole entry): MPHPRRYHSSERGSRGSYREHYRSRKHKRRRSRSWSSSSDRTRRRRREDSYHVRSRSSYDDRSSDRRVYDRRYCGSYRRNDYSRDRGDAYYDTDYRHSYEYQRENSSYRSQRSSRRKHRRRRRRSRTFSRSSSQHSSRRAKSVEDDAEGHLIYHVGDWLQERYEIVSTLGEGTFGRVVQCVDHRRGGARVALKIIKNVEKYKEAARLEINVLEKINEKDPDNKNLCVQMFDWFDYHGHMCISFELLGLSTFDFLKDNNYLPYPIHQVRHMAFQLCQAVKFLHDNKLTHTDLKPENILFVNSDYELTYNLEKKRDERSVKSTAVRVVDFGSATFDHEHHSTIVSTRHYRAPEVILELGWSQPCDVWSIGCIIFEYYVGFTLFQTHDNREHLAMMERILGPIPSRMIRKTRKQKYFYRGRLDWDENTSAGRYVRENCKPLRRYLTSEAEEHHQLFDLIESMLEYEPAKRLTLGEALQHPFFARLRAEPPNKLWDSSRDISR

EC50 ([1]; DND41, DND-41 cell line, read-out: Haematopoietic & Lymphoid tumors, EC50 (μM) DND-41): 0.014 µM
EC50 ([1]; MV4-11, MV-4-11 cell line, read-out: Haematopoietic & Lymphoid tumors, EC50 (μM) MV-4-11): 0.007 µM
EC50 ([1]; Rec1, REC-1 cell line, read-out: Haematopoietic & Lymphoid tumors, EC50 (μM) REC-1): 0.024 µM
EC50 ([1]; SU-DHL-4, SUDHL4 cell line, read-out: Haematopoietic & Lymphoid tumors, EC50 (μM) SUDHL4): 0.009 µM
EC50 ([1]; HL-60 cell line, read-out: Haematopoietic & Lymphoid tumors, EC50 (μM) HL-60): 0.034 µM
EC50 ([1]; JM1 cell line, read-out: Haematopoietic & Lymphoid tumors, EC50 (μM) JM1): 0.01 µM
EC50 ([1]; JURKAT, Clone E6-1 cell line, read-out: Haematopoietic & Lymphoid tumors, EC50 (μM) JURKAT, Clone E6-1): 0.031 µM
EC50 ([1]; JeKo-1 cell line, read-out: Haematopoietic & Lymphoid tumors, EC50 (μM) JeKo-1): 0.008 µM
EC50 ([1]; KASUMI-1 cell line, read-out: Haematopoietic & Lymphoid tumors, EC50 (μM) KASUMI-1): 0.01 µM
EC50 ([1]; Loucy cell line, read-out: Haematopoietic & Lymphoid tumors, EC50 (μM) Loucy): 0.013 µM
EC50 ([1]; MOLT-4 cell line, read-out: Haematopoietic & Lymphoid tumors, EC50 (μM) MOLT-4): 0.045 µM
EC50 ([1]; TF-1 cell line, read-out: Haematopoietic & Lymphoid tumors, EC50 (μM) TF-1): 0.008 µM
EC50 ([1]; TOLEDO cell line, read-out: Haematopoietic & Lymphoid tumors, EC50 (μM) TOLEDO): 0.019 µM
EC50 ([2]; HCT-116, HCT116 cell line, read-out: Colorectal cancer, EC50 (μM) HCT116): 0.05 µM
EC50 ([2]; HT-29, HT29 cell line, read-out: Colorectal cancer, EC50 (μM) HT29): 0.211 µM
EC50 ([2]; SW-620, SW620 cell line, read-out: Colorectal cancer, EC50 (μM) SW620): 0.044 µM
EC50 ([2]; DLD-1 cell line, read-out: Colorectal cancer, EC50 (μM) DLD-1): 0.095 µM
EC50 ([2]; SW48 cell line, read-out: Colorectal cancer, EC50 (μM) SW48): 0.082 µM
EC50 ([2]; SW480 cell line, read-out: Colorectal cancer, EC50 (μM) SW480): 0.078 µM
EC50 (CLK2): 3.1 nM
EC50 ([3]; BXPC-3, BxPC3 cell line, read-out: Pancreatic cancer, EC50 BxPC3): 22 nM
EC50 ([3]; CAPAN-1, Capan1 cell line, read-out: Pancreatic cancer, EC50 Capan1): 103 nM
EC50 ([3]; Capan-2, Capan2 cell line, read-out: Pancreatic cancer, EC50 Capan2): 74 nM
EC50 ([3]; MIA PaCa-2 cell line, read-out: Pancreatic cancer, EC50 MIA PaCa-2): 40 nM
EC50 ([3]; PANC 05.04 cell line, read-out: Pancreatic cancer, EC50 PANC 05.04): 60 nM
EC50 ([3]; PANC-1 cell line, read-out: Pancreatic cancer, EC50 PANC-1): 413 nM
EC50 ([3]; UPAFII cell line, read-out: Pancreatic cancer, EC50 UPAFII): 136 nM
EC50 (CLK3): 22.5 nM
EC50 ([4]; PA-1, PA1 cell line, read-out: Ovarian cancer, EC50 (μM) PA1): 0.057 µM
EC50 ([4]; TOV112D, TOV-112D cell line, read-out: Ovarian cancer, EC50 (μM) TOV-112D): 0.102 µM
EC50 ([4]; OV-90 cell line, read-out: Ovarian cancer, EC50 (μM) OV-90): 0.255 µM
EC50 ([4]; OVCAR-3 cell line, read-out: Ovarian cancer, EC50 (μM) OVCAR-3): 0.025 µM
EC50 ([5]; A-427, A427 cell line, read-out: Lung cancer, EC50 (μM) A427): 0.064 µM
EC50 ([5]; HCC78, HCC-78 cell line, read-out: Lung cancer, EC50 (μM) HCC-78): 0.1 µM
EC50 ([5]; NCI-H460 cell line, read-out: Lung cancer, EC50 (μM) NCI-H460): 0.476 µM
EC50 ([5]; NCI-H522 cell line, read-out: Lung cancer, EC50 (μM) NCI-H522): 0.06 µM
EC50 (CAMA1): 88 nM
EC50 (MCF7): 336 nM
EC50 (HCC1599): 8 nM
EC50 (DU4475): 46 nM
EC50 (ZR-75-1): 113 nM
EC50 (BT-549): 24 nM
EC50 (T47D): 402 nM
EC50 (MDA-MB-231-Luc): 118 nM
EC50 ([6]; SNU-398, SNU398 cell line, read-out: Liver cancer, EC50 SNU398): 38 nM
EC50 ([6]; HEPG2 cell line, read-out: Liver cancer, EC50 HEPG2): 375 nM
EC50 ([6]; PLC/PRF/5 cell line, read-out: Liver cancer, EC50 PLC/PRF/5): 444 nM
EC50 ([7]; DU-145, read-out: Prostate cancer EC50 Du-145): 91 nM
EC50 ([7]; PC-3, PC3 cell line, inhibition of cancer cell proliferation, read-out: Prostate cancer EC50 PC3): 31 nM
EC50 ([7]; 22Rv1 cell line, inhibition of cancer cell proliferation, read-out: Prostate cancer EC50 22Rv1): 21 nM
EC50 ([7]; LNCap clone FGC cell line, inhibition of cancer cell proliferation, read-out: Prostate cancer EC50 LNCap clone FGC): 50 nM
EC50 ([7]; VCaP (Sigma) cell line, inhibition of cancer cell proliferation, read-out: Prostate cancer EC50 VCaP (Sigma)): 9 nM
Compound: O=C(Nc1c[nH]nc1-c1nc2c(-c3cccc(F)c3)cncc2[nH]1)c1cccnc1 [Compound 91]
EC50 (all 50 cell lines): 99 nM
